{"source": "patent US7906488B2", "about": "“Sphingolipids in treatment and prevention of steatosis and of steatosis or of hepatotoxicity and its sequelae” (Nederlandse Organisatie Voor …, priority 2004, dated 2011)", "test_system": "APOE*3Leiden mice", "experiment": "Plasma parameters, body and liver weight after 1% PS-containing Western-type diet", "type": "in vivo", "description": "Sphingolipids: The three sphingolipids that represent the most abundant natural complex sphingolipid classes and the three of the simplest natural sphingolipids, the sphingoid bases that can be formed by enzymatic breakdown of complex sphingolipids in the intestine were used. Sphingomyelin (mainly N-palmitoyl-sphingosine-1-phosphocholine) from egg was obtained from Larodan Fine Chemicals (Stockholm, Sweden). Yeast-derived (semi)synthetic ceramide III (N-stearoyl-phytosphingosine), cerebroside (N-stearoyl-phytosphingosine-1-glucose) and phytosphingosine (PS) were from Cosmoferm BV (Delft, the Netherlands). Sphinganine and sphingosine were from Avanti Polar Lipids (Albaster, Ala.). Animals and diets: Heterozygous female APOE*3Leiden transgenic mice (Van Vlijmen et al. 1994. J. Clin. Invest 93:1403-1410.) (6 months old) were fed a Western-type diet (Hope Farms, Woerden, the Netherlands) containing 15% cocoa butter, 0.25% cholesterol, 1% corn oil, 40.5% sucrose, 20% acid casein, 10% corn starch and 5.95% cellulose (all w/w) for 5 weeks. The mice were allowed free access to food and water. Body weight and food intake were monitored weekly. In the first experiment (FIG. 2), the mice were randomized after these 5 weeks into 7 groups (n=6), based on plasma cholesterol, triglycerides, and body weight. Subsequently, the mice were fed for three weeks the same diet without or with 0.1% (w/w) phytosphingosine (PS), sphingosine, sphinganine, cerebroside, ceramide III, or sphingomyelin. Then, the sphingolipid dose was increased to 0.2% (w/w) for 3 weeks and finally to 0.4% (w/w) for 3 weeks. At randomization, and at 3, 6, and 9 weeks, tail vein blood samples were obtained after a 4 h-fast. In all subsequent experiments, female APOE*3Leiden transgenic mice (6 months old) were fed the Western-type diet for 5 weeks, and randomized as described. Subsequently, they were fed the Western-type diet for 5 weeks, or this diet supplemented with 1.0% (w/w) of PS, before being subjected to experimentation.\nPlasma parameters: Tail blood samples were collected in EDTA-coated cups, or in paraoxon-coated capillaries to prevent lipolysis as described in Zambon et al. 1993 (Zambon et al. 1993. J. Lipid Res. 34:1021-1028). Plasma lipid parameters were determined using commercial kits for total cholesterol (C) Chol R1 from Roche Diagnostics, Mannheim, Germany), non-esterified free fatty acids (FFA) (NEFA-C; Wako chemicals, Neuss, Germany), Total triglycerides (TG) (Triglyceride GPO-Trinder; Sigma, St. Louis, Mo.), β-hydroxybutyrate (β-HB; Sigma) and ALAT (Reflotron GPT; Roche). Serum amyloid A (SAA) was measured by ELISA (Biosource, Nivelles, Belgium) and fibrinogen by sandwich ELISA, as described in Koopman et al., 2005 (Koopman et al. 2005. Fibrinol Proteol 11:19). For lipoproteins fractionation, groupwise-pooled plasma was size-fractionated by fast protein liquid chromatography (FPLC) on a Superose 6 column (Äkta; Amersham Pharmacia Biotech, Uppsala, Sweden). Fractions were assayed for total C and TG as described. Hepatic VLDL-TG production: The rate of hepatic VLDL-TG production, de novo apoB secretion, and VLDL composition were determined in overnight-fasted mice. Mice were anaesthetized with vetranquil/fentanyl/midazolam i.p., and injected i.v. with 0.1 ml PBS containing 100 μCi Tran^35S-label™ (ICN Biomedicals, Irvine, Calif.) to measure the de novo apoB synthesis. After 30 min, the animals received a Triton WR1339 injection (Tyloxapol, Sigma; 500 mg/kg body weight in 100 μl saline) to prevent systemic lipolysis of newly-secreted hepatic VLDL-TG (Aalto-Setala et al. 1992. J. Clin. Invest 90:1889-1900.27) Blood samples were drawn at 0, 15, 30, 60, and 90 min after Triton WR1339 injection and plasma TG concentrations were determined. After 90 min, the animals were sacrificed and blood was collected by retro-orbital bleeding for isolation of VLDL. […]", "key": {"[1]": {"details": "1% PS in Western-type diet, 5 weeks"}, "[2]": {"details": "1% PS in Western-type diet, 5 weeks, 4 h-fasted"}}, "data": [{"smiles": "CCCCCCCCCCCCCC[C@@H](O)[C@@H](O)[C@@H](N)CO", "note": "[PS, phytosphingosine]", "values": [{"measurement": "Effects on body weight or food intake", "setting": "1% (w/w) PS in Western-type diet, five weeks", "result": "No effects"}, {"measurement": "Body weight, % Δ vs control", "setting": "[1]", "result": "n.s."}, {"measurement": "HDL cholesterol (FPLC lipoprotein profile of pooled plasma)", "setting": "[1]", "result": "did not change"}, {"measurement": "Liver weight, % Δ vs control", "setting": "[1]", "result": "−22", "unit": "%"}, {"measurement": "Plasma free fatty acids, % Δ vs control", "setting": "[1]", "result": "−36", "unit": "%"}, {"measurement": "Plasma total cholesterol, % Δ vs control", "setting": "[1]", "result": "−57", "unit": "%"}, {"measurement": "Plasma triglycerides, % Δ vs control", "setting": "[1]", "result": "−58", "unit": "%"}, {"measurement": "Plasma β-hydroxybutyrate, % Δ vs control", "setting": "[1]", "result": "n.s."}, {"measurement": "Body weight", "setting": "[2]", "result": "22.6 ± 1.0", "unit": "g"}, {"measurement": "Liver weight", "setting": "[2]", "result": "1.05 ± 0.08", "unit": "g"}, {"measurement": "Plasma free fatty acids", "setting": "[2]", "result": "1.06 ± 0.14", "unit": "mmol/L"}, {"measurement": "Plasma total cholesterol", "setting": "[2]", "result": "6.1 ± 1.1", "unit": "mmol/L"}, {"measurement": "Plasma triglycerides", "setting": "[2]", "result": "1.19 ± 0.39", "unit": "mmol/L"}, {"measurement": "Plasma β-hydroxybutyrate", "setting": "[2]", "result": "0.49 ± 0.39", "unit": "mmol/L"}]}]}
